Here are results for 18 compounds from US20240132531A1, “NOVEL GALACTOSIDE INHIBITOR OF GALECTINS” (GALECTO BIOTECH AB, priority 2020, published 2024).

A word on the pKd: it is −log10 of the Kd, conventionally taken in molar units.

pKd: −log10 of the molar value.

For one assay, the target named is galectin-1 (Homo sapiens, UniProt P09382). As to the kind of experiment: Fluorescence anisotropy assay, affinity for galectin-1. The class given is binding. Conditions: compound as inhibitor of the interaction between galectin and a fluorescein tagged saccharide probe; read-out: Gal-1 Kd. The protocol: (§1) The affinity of Example 1-39 for galectins were determined by a fluorescence anisotropy assay where the compound was used as an inhibitor of the interaction between galectin and a fluorescein tagged saccharide probe as described Sarme, P., Kahl-Knutsson, B., Huflejt, M., Nilsson, U. J., and Leffler H. (2004) Fluorescence polarization as an analytical tool to evaluate galectin-ligand interactions. Anal. Biochem. 334: 36-47, (Sarme et al., 2004) and Monovalent interactions of Galectin-1 By Salomonsson, Emma; Larumbe, Amaia; Tejler, Johan; Tullberg, Erik; Rydberg, Hanna; Sundin, Anders; Khabut, Areej; Frejd, Torbjorn; Lobsanov, Yuri D.; Rini, James M.; et al, From Biochemistry (2010), 49(44), 9518-9532, (Salomonsson et al., 2010).
A general note: In fluorescence polarisation assays a small probe gives low polarisation when free and higher when bound to something large.

The next assay addresses galectin-3 (Homo sapiens, UniProt P17931). As to the kind of experiment: Fluorescence anisotropy assay, affinity for galectin-3. Conditions: compound as inhibitor of the interaction between galectin and a fluorescein tagged saccharide probe; read-out: Gal-3 Kd. It counts as binding. The protocol: as §1

Chain of galectin-1 (P09382 whole entry): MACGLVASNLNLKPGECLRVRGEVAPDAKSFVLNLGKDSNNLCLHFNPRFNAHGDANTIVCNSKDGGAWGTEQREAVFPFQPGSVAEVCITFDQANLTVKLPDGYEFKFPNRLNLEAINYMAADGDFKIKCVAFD
Chain of galectin-3 (P17931 whole entry): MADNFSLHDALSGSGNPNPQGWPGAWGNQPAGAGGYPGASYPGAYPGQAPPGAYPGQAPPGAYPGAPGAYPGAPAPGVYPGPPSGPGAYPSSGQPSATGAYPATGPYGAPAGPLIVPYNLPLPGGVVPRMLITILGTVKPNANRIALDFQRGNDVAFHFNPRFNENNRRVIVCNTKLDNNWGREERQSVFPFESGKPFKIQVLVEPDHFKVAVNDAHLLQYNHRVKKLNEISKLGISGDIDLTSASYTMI

Regarding `COC1C(n2cc(-c3csc(N)n3)nn2)[C@@H](O)C(CO)O[C@H]1c1ccnn1-c1cc(Cl)ccc1C(F)(F)F` (stereo partly drawn) [Example 34, 1-{5-{3-[4-(2-Aminothiazol-4-yl)-1H-1,2,3-triazol-1-yl]-3-deoxy-2-O-methyl-β-D-galactopyranosyl}-1H-1,2-pyrazol-1-yl}-5-chloro-2-(trifluoromethyl)benzene], the pKd on galectin-1 was 7.31; at galectin-3 it was 5.17.
For `COC1C(n2cc(-c3ncc(Cl)s3)nn2)[C@@H](O)C(CO)O[C@H]1c1ccnn1-c1cc(Cl)ccc1C(F)(F)F` (stereo partly drawn) [Example 12, 1-{5-{3-[4-(5-Chlorothiazol-2-yl)-1H-1,2,3-triazol-1-yl]-3-deoxy-2-O-methyl-β-D-galactopyranosyl}-1H-1,2-pyrazol-1-yl}-5-chloro-2-(trifluoromethyl)benzene], in that order: 7.62 and 6.41.
With `COC1C(n2cc(-c3nc(Cl)cs3)nn2)[C@@H](O)C(CO)O[C@H]1c1ccnn1-c1cc(Br)ccc1C(F)(F)F` (stereo partly drawn) [Example 20, 5-Bromo-1-{5-{3-[4-(4-chlorothiazol-2-yl)-1H-1,2,3-triazol-1-yl]-3-deoxy-2-O-methyl-β-D-galactopyranosyl}-1H-1,2-pyrazol-1-yl}-2-(trifluoromethyl)benzene], the values for the pKd at galectin-1 and at galectin-3 were 7.51 and 6.39, respectively.
The like results for `OCC1O[C@@H](c2ccnn2-c2cc(Cl)ccc2C(F)(F)F)C(O)C(n2cc(-c3nccs3)nn2)[C@H]1O` (stereo partly drawn) [Example 5, 5-Chloro-1-{5-{3-deoxy-3-[4-(2-thiazolyl)-1H-1,2,3-triazol-1-yl]-β-D-galactopyranosyl}-1H-1,2-pyrazol-1-yl}-2-(trifluoromethyl)benzene] were, in that order, 6.68 and 5.32.
For the compound `COC1C(n2cc(-c3nc(Cl)cs3)nn2)[C@@H](O)C(CO)O[C@H]1c1ccnn1-c1cc(Cl)c(F)cc1C(F)(F)F` (stereo partly drawn) [Example 22, 1-{5-{3-[4-(4-Chlorothiazol-2-yl)-1H-1,2,3-triazol-1-yl]-3-deoxy-2-O-methyl-β-D-galactopyranosyl}-1H-1,2-pyrazol-1-yl}-5-chloro-4-fluoro-2-(trifluoromethyl)benzene], the pKd on galectin-1 was 7.37; on galectin-3 it was 6.07.
The like results for `COC1C(n2cc(-c3nc(Cl)cs3)nn2)[C@@H](O)C(CO)O[C@H]1c1cc(C)nn1-c1cc(Cl)ccc1C(F)(F)F` (stereo partly drawn) [Example 13, 1-{5-{3-[4-(4-Chlorothiazol-2-yl)-1H-1,2,3-triazol-1-yl]-3-deoxy-2-O-methyl-β-D-galactopyranosyl}-3-methyl-1H-1,2-pyrazol-1-yl}-5-chloro-2-(trifluoromethyl)benzene] were, in that order, 7.44 and 6.54.
Take `COC1C(n2cc(-c3nc(Cl)cs3)nn2)[C@@H](O)C(CO)O[C@H]1c1ccnn1-c1cc(Br)cnc1C(F)(F)F` (stereo partly drawn) [Example 33, 5-Bromo-3-{5-{3-[4-(4-chlorothiazol-2-yl)-1H-1,2,3-triazol-1-yl]-3-deoxy-2-O-methyl-β-D-galactopyranosyl}-1H-1,2-pyrazol-1-yl}-2-(trifluoromethyl)pyridine]: the pKd at galectin-1 was 7.49; at galectin-3, 6.28.
For `Nc1nc(-c2cn(C3C(O)[C@H](c4ccnn4-c4cc(Cl)ccc4C(F)(F)F)OC(CO)[C@@H]3O)nn2)cs1` (stereo partly drawn) [Example 6, 1-{5-{3-[4-(2-Aminothiazol-4-yl)-1H-1,2,3-triazol-1-yl]-3-deoxy-β-D-galactopyranosyl}-1H-1,2-pyrazol-1-yl}-5-chloro-2-(trifluoromethyl)benzene], in that order: 6.92 and 4.97.
For `COC1C(n2cc(-c3nccs3)nn2)[C@@H](O)C(CO)O[C@H]1c1ccnn1-c1cc(Cl)ccc1C(F)(F)F` (stereo partly drawn) [Example 2, 5-Chloro-1-{5-{3-deoxy-2-O-methyl-3-[4-(2-thiazolyl)-1H-1,2,3-triazol-1-yl]-β-D-galactopyranosyl}-1H-1,2-pyrazol-1-yl}-2-(trifluoromethyl)benzene], in that order: 6.77 and 5.12.
The like results for `COC1C(n2cc(-c3nc(Cl)cs3)nn2)[C@@H](O)C(CO)O[C@H]1c1cc(C#N)nn1-c1cc(Cl)ccc1C(F)(F)F` (stereo partly drawn) [Example 31, 1-{5-{3-[4-(4-Chlorothiazol-2-yl)-1H-1,2,3-triazol-1-yl]-3-deoxy-2-O-methyl-β-D-galactopyranosyl}-3-cyano-1H-1,2-pyrazol-1-yl}-5-chloro-2-(trifluoromethyl)benzene] were, in that order, 7.15 and 6.40.
Regarding `OCC1O[C@@H](c2ccnn2-c2cc(Cl)ccc2C(F)(F)F)C(O)C(n2cc(-c3nc(Cl)cs3)nn2)[C@H]1O` (stereo partly drawn) [Example 11, 1-{5-{3-[4-(4-Chlorothiazol-2-yl)-1H-1,2,3-triazol-1-yl]-3-deoxy-β-D-galactopyranosyl}-1H-1,2-pyrazol-1-yl}-5-chloro-2-(trifluoromethyl)benzene], the pKd is 7.32 at galectin-1 and 6.37 at galectin-3.
For `COC1C(n2cc(-c3nc(Cl)cs3)nn2)[C@@H](O)C(CO)O[C@H]1c1ccnn1-c1cc(Cl)ccc1C(F)(F)F` (stereo partly drawn) [Example 1, 1-{5-{3-[4-(4-Chlorothiazol-2-yl)-1H-1,2,3-triazol-1-yl]-3-deoxy-2-O-methyl-β-D-galactopyranosyl}-1H-1,2-pyrazol-1-yl}-5-chloro-2-(trifluoromethyl)benzene], in that order: 7.44 and 6.35.
For `COC1C(n2cc(-c3nc(Cl)cs3)nn2)[C@@H](O)C(CO)O[C@H]1c1cc(C(C)C)nn1-c1cc(Cl)ccc1C(F)(F)F` (stereo partly drawn) [Example 28, 1-{5-{3-[4-(4-Chlorothiazol-2-yl)-1H-1,2,3-triazol-1-yl]-3-deoxy-2-O-methyl-β-D-galactopyranosyl}-3-isopropyl-1H-1,2-pyrazol-1-yl}-5-chloro-2-(trifluoromethyl)benzene], in that order: 6.74 and 6.49.
For `COC1C(n2cc(-c3nc(Cl)cs3)nn2)[C@@H](O)C(CO)O[C@H]1c1cc(Cl)nn1-c1cc(Cl)ccc1C(F)(F)F` (stereo partly drawn) [Example 25, 1-{5-{3-[4-(4-Chlorothiazol-2-yl)-1H-1,2,3-triazol-1-yl]-3-deoxy-2-O-methyl-β-D-galactopyranosyl}-3-chloro-1H-1,2-pyrazol-1-yl}-5-chloro-2-(trifluoromethyl)benzene], in that order: 7.40 and 6.74.
`COC1C(n2cc(-c3nc(Cl)cs3)nn2)[C@@H](O)C(CO)O[C@H]1c1cc(Br)nn1-c1cc(Cl)ccc1C(F)(F)F` (stereo partly drawn) [Example 26, 1-{3-Bromo-5-{3-[4-(4-chlorothiazol-2-yl)-1H-1,2,3-triazol-1-yl]-3-deoxy-2-O-methyl-β-D-galactopyranosyl}-1H-1,2-pyrazol-1-yl}-5-chloro-2-(trifluoromethyl)benzene]: the pKd on galectin-1 is 7.18; on galectin-3 it was 6.12.
For the compound `COC1C(n2cc(-c3csc(O)n3)nn2)[C@@H](O)C(CO)O[C@H]1c1ccnn1-c1cc(Cl)ccc1C(F)(F)F` (stereo partly drawn) [Example 35, 5-Chloro-1-{5-{3-deoxy-3-[4-(2-hydroxythiazol-4-yl)-1H-1,2,3-triazol-1-yl]-2-O-methyl-β-D-galactopyranosyl}-1H-1,2-pyrazol-1-yl}-2-(trifluoromethyl)benzene], the pKd at galectin-1 is 7.51; at galectin-3, 5.38.
The like results for `COC1C(n2cc(-c3csc(O)n3)nn2)[C@@H](O)C(CO)O[C@H]1c1ccnn1-c1cc(Cl)c(Cl)cc1C(F)(F)F` (stereo partly drawn) [Example 36, 4,5-Dichloro-1-{5-{3-deoxy-3-[4-(2-hydroxythiazol-4-yl)-1H-1,2,3-triazol-1-yl]-2-O-methyl-β-D-galactopyranosyl}-1H-1,2-pyrazol-1-yl}-2-(trifluoromethyl)benzene] were, in that order, 7.59 and 5.03.
Regarding `COC1C(n2cc(-c3nc(C)cs3)nn2)[C@@H](O)C(CO)O[C@H]1c1ccnn1-c1cc(Cl)ccc1C(F)(F)F` (stereo partly drawn) [Example 4, 5-Chloro-1-{5-{3-deoxy-3-[4-(4-methylthiazol-2-yl)-1H-1,2,3-triazol-1-yl]-2-O-methyl-β-D-galactopyranosyl}-1H-1,2-pyrazol-1-yl}-2-(trifluoromethyl)benzene], the pKd was 6.59 on galectin-1 and 5.49 at galectin-3.
